Patent publication US5824668A, “Formulation for administration of steroid compounds” (priority 1996, dated 1998)
“Also recorded” adds a separate entry of the source.

Legend:
genetically obese mice = settings: cited from earlier work; for anti-obesity effect / development of obesity / weight reduction after obesity: supplied in the diet, diabetic genetically obese mice
[1] = tested on: genetically obese and diabetic mice; settings: cited from earlier work; for effectiveness relative to DHEA in preventing development of diabetes: C57BL/KsJ-db/db diabetic mice; for blood sugar / effect on the pancreas (granulation of islet cells) / plasma insulin concentrations: Coleman 1984
[2] = tested on: severely diabetic mammals; settings: oral; cited from earlier work
rats and mice = settings: cited from earlier work
[3] = cited from earlier work; for conversion in serum: normal and obese subjects, unpublished data; for oxidation at C-3 position to form etiocholandione: oral or parenteral; for recovery in the urine: parenteral routes
female patients = settings: cited from earlier work
[4] = cited from earlier work; for influence on stabilization of mitomycin-C: acidic aqueous media, pH ranges studied
Prader-Willi Syndrome = settings: cited from earlier work
[5] = Optical density of ET and ED dissolved in hydroxypropyl-β-cyclodextrin solutions; format: physicochemical
Procedure: The optical density (OD) of the ET and ED dissolved in hydroxypropyl-β-cyclodextrin solutions was determined at 400 NM against a blank control containing water and set at an OD of 0.0.

[6] = cited from earlier work; for pyrogenic reaction: intramuscular injection
aplastic anemia patients = settings: cited from earlier work; for patients with hematologic responses lasting longer than six months: of 43 patients treated with either α- and/or β ET, im
auto-immune diseases = settings: cited from earlier work
[7] = Dissolution of 5β steroid in water or in hydroxypropyl-β-cyclodextrin solution (Examples I-VII); format: physicochemical
Procedure: 12 milligrams (mg) of Etiocholandione (Steraloids, Inc. New Hampshire) was stirred and shaken with 0.5 ml of water in a test tube.
A 50% solution of hydroxypropyl-β-cyclodextrin was prepared as follows. 5 grams of pyrogen free hydroxypropyl-β-cyclodextrin (sold under the trade name Encapsin, Amaizo, Inc., Hammond, Ind., USA) was weighed on an analytical scale and placed in a graduated cylinder. Water was added with shaking until the volume reached 10 ml.
0.5 ml of the 50% solution of hydroxypropyl-β-cyclodextrin was added to the 0.5 ml of water containing 12 mg of Etiocholandione with additional shaking.
The previous experiment was repeated using a 50% solution of hydroxypropyl-β-cyclodextrin prepared as in Example 1. 50 mg of Etiocholandione was weighed and placed in a test tube. 2 ml of the 50% solution of hydroxypropyl-β-cyclodextrin was added to the test tube with shaking.
4 grams of hydroxypropyl-β-cyclodextrin was dissolved in 7 ml of distilled water to a total volume of 10 ml. Each ml of stock solution contained 0.4 g of solution hydroxypropyl-β-cyclodextrin. 20 mg of 3-β-hydroxy androstan-17-one (β-etiocholanolone) was shaken with 1 ml of the freshly prepared stock solution.
The same experiment as in example III was performed except that 40 mg of β-etiocholanolone was added to the stock solution of hydroxypropyl-β-cyclodextrin.
The same experiment as in example III was performed except that 20 mg of Etiocholandione was added to the stock solution of hydroxypropyl-β-cyclodextrin.
The same experiment as in example V was performed except that 40 mg of Etiocholandione was added to the stock solution of hydroxypropyl-β-cyclodextrin.
The same experiment as in Example V was performed except 80 mg or 250 mg ED was added to the stock solution.

obese subjects = settings: oral, cited from earlier work
[8] = dissolved solution in hydroxypropyl-β-cyclodextrin, 400 NM, against water blank

C[C@]12CC[C@H](O)CC1=CC[C@@H]1[C@@H]2CC[C@]2(C)C(=O)CC[C@@H]12 [DHEA, 3-β-hydroxy-androst-5-en-17-one]
rate of weight gain (genetically obese mice; genetically obese mice, variety of routes): decreased the rate of weight gain
development of diabetes ([1]; genetically obese and diabetic mice): markedly reduced the development of diabetes
glucose tolerance [2]: improved glucose tolerance
hyperglycemia [2]: restored hyperglycemia to normal levels
control of diabetes and obesity (rats and mice): effective in controlling diabetes and obesity
metabolism ([3]; humans): metabolized to testosterone (17-β-hydroxy-androst-4-en-3-one) and estradiol
acne (female patients): severe acne

COC[C@H]1O[C@@H]2O[C@H]3[C@H](O)[C@@H](OC)[C@@H](O[C@H]4[C@H](O)[C@@H](OC)[C@@H](O[C@H]5[C@H](O)[C@@H](OC)[C@@H](O[C@H]6[C@H](O)[C@@H](OC)[C@@H](O[C@H]7[C@H](O)[C@@H](OC)[C@@H](O[C@H]8[C@H](O)[C@@H](OC)[C@@H](O[C@H]1[C@H](O)[C@H]2OC)O[C@@H]8COC)O[C@@H]7COC)O[C@@H]6COC)O[C@@H]5COC)O[C@@H]4COC)O[C@@H]3COC [heptakis-(2,6,-di-O-methyl)-β- cyclodextrin]
influence on stabilization of mitomycin-C [4]: no influence on stabilization of mitomycin-C pH degradation

C[C@]12CC[C@@H](O)C[C@H]1CC[C@@H]1[C@@H]2CC[C@]2(C)C(=O)CC[C@@H]12 [etiocholanolone]
weight change in treated individuals (Prader-Willi Syndrome): either weight loss or a decrease in the rate of weight gain

C[C@]12CC[C@H](O)C[C@H]1CC[C@@H]1[C@@H]2CC[C@]2(C)C(=O)CC[C@@H]12 [β ET, 3-β-hydroxy androstan-17-one]
optical density (OD) [5, 8]: 0.12
anti-obesity effect (genetically obese mice): anti-obesity properties
development of obesity (genetically obese mice): can prevent and arrest the development of obesity
weight reduction after obesity (genetically obese mice): facilitate weight reduction after obesity
effectiveness relative to DHEA in preventing development of diabetes [1]: four times more effective than DHEA
blood sugar [1]: reduce blood sugar
effect on the pancreas (granulation of islet cells) [1]: protective effect on the pancreas
plasma insulin concentrations [1]: increased plasma insulin concentrations
pyrogenic reaction [6]: little pyrogenic effect
patients with hematologic responses lasting longer than six months (aplastic anemia patients): 17
hematologic recovery in non-responders to α ET (aplastic anemia patients; treated with β-ET): three patients who did not respond to α ET had a hematologic recovery
conversion in serum [3]: quickly converted almost exclusively to α ET
oxidation at C-3 position to form etiocholandione [3]: rapidly oxidized at the C-3 position
recovery in the urine [3]: almost exclusively α ET conjugates

OC[C@H]1O[C@@H]2O[C@H]3[C@H](O)[C@@H](O)[C@@H](O[C@H]4[C@H](O)[C@@H](O)[C@@H](O[C@H]5[C@H](O)[C@@H](O)[C@@H](O[C@H]6[C@H](O)[C@@H](O)[C@@H](O[C@H]7[C@H](O)[C@@H](O)[C@@H](O[C@H]8[C@H](O)[C@@H](O)[C@@H](O[C@H]1[C@H](O)[C@H]2O)O[C@@H]8CO)O[C@@H]7CO)O[C@@H]6CO)O[C@@H]5CO)O[C@@H]4CO)O[C@@H]3CO [β-cyclodextrin]
influence on stabilization of mitomycin-C [4]: no influence on stabilization of mitomycin-C pH degradation

C[C@]12CC[C@@H](O)C[C@H]1CC[C@@H]1[C@@H]2CC[C@]2(C)C(=O)CC[C@@H]12 [α ET]
anti-obesity effect (genetically obese mice): anti-obesity properties
development of obesity (genetically obese mice): can prevent and arrest the development of obesity
weight reduction after obesity (genetically obese mice): facilitate weight reduction after obesity
effectiveness relative to DHEA in preventing development of diabetes [1]: four times more effective than DHEA
blood sugar [1]: reduce blood sugar
effect on the pancreas (granulation of islet cells) [1]: protective effect on the pancreas
plasma insulin concentrations [1]: increased plasma insulin concentrations
pyrogenic reaction [6]: acute pyrogenic reactions; also recorded: pyrogenic reaction and notable patient discomfort
patients with hematologic responses lasting longer than six months (aplastic anemia patients): 17
oxidation at C3 position ([3]; IV, human subjects, isotopic ratio studies): rapidly oxidized and re-reduced
urinary excretion ([3]; normal individuals, endogenous): 3-5 mg per day
oxidation at C-3 position to form etiocholandione [3]: rapidly oxidized at the C-3 position
recovery in the urine [3]: almost exclusively α ET conjugates

C[C@]12CC[C@H](O)C[C@@H]1CC[C@@H]1[C@@H]2CC[C@]2(C)C(=O)CC[C@@H]12 [epiandrosterone, reference compound]
effectiveness relative to DHEA in preventing development of diabetes [1]: but not androsterone or epiandrosterone

OC[C@H]1O[C@@H]2O[C@H]3[C@H](O)[C@@H](O)[C@@H](O[C@H]4[C@H](O)[C@@H](O)[C@@H](O[C@H]5[C@H](O)[C@@H](O)[C@@H](O[C@H]6[C@H](O)[C@@H](O)[C@@H](O[C@H]7[C@H](O)[C@@H](O)[C@@H](O[C@H]1[C@H](O)[C@H]2O)O[C@@H]7CO)O[C@@H]6CO)O[C@@H]5CO)O[C@@H]4CO)O[C@@H]3CO [α-cyclodextrin]
influence on stabilization of mitomycin-C [4]: no influence on stabilization of mitomycin-C pH degradation

OC[C@H]1O[C@@H]2O[C@H]3[C@H](O)[C@@H](O)[C@@H](O[C@H]4[C@H](O)[C@@H](O)[C@@H](O[C@H]5[C@H](O)[C@@H](O)[C@@H](O[C@H]6[C@H](O)[C@@H](O)[C@@H](O[C@H]7[C@H](O)[C@@H](O)[C@@H](O[C@H]8[C@H](O)[C@@H](O)[C@@H](O[C@H]9[C@H](O)[C@@H](O)[C@@H](O[C@H]1[C@H](O)[C@H]2O)O[C@@H]9CO)O[C@@H]8CO)O[C@@H]7CO)O[C@@H]6CO)O[C@@H]5CO)O[C@@H]4CO)O[C@@H]3CO [γ-cyclodextrin]
stabilizing effect on mitomycin ([4]; acidic media at pH above 1): measurable stabilizing effect on mitomycin

C[C@]12CC[C@@H](O)C[C@@H]1CC[C@@H]1[C@@H]2CC[C@]2(C)C(=O)CC[C@@H]12 [androsterone, reference compound]
effectiveness relative to DHEA in preventing development of diabetes [1]: but not androsterone or epiandrosterone

dimethyl-β- cyclodextrin
influence on stabilization of mitomycin-C [4]: no influence on stabilization of mitomycin-C pH degradation

C[C@]12C=CC(=O)C=C1CC[C@@H]1[C@@H]2C(=O)C[C@@]2(C)[C@H]1CC[C@]2(O)C(=O)CO [prednisone]
side effects (auto-immune diseases; in vivo): fluid retention and dramatic loss of bone or osteoporosis
symptoms of auto-immune diseases (auto-immune diseases; ulcerative colitis, Chrone's disease, rheumatoid arthritis): effective in reducing the symptoms

C[C@]12CCC(=O)C[C@H]1CC[C@@H]1[C@@H]2CC[C@]2(C)C(=O)CC[C@@H]12 [ED]
dissolution in water ([7]; 12 mg in 0.5 ml of water, after 5 minutes): Appreciable quantities of compound remained out of solution
appearance of solution ([7]; 12 mg in 1 ml of 25% hydroxypropyl-β-cyclodextrin): A clear solution was obtained
time to complete dissolution ([7]; 20 mg in 1 ml stock solution (0.4 g/ml hydroxypropyl-β-cyclodextrin), room temperature, occasional shaking): ≤ 6 h
time to complete dissolution ([7]; 40 mg in 1 ml stock solution (0.4 g/ml hydroxypropyl-β-cyclodextrin)): ≤ 24 h
appearance of solution ([7]; 50 mg in 2 ml of 50% hydroxypropyl-β-cyclodextrin): clear solution with no accumulation of crystals
time to dissolution ([7]; 50 mg in 2 ml of 50% hydroxypropyl-β-cyclodextrin, with shaking): Within one minute
complete dissolution ([7]; 80 mg added to stock solution (0.4 g/ml hydroxypropyl-β-cyclodextrin)): In neither case did the ED completely dissolve
complete dissolution ([7]; 250 mg added to stock solution (0.4 g/ml hydroxypropyl-β-cyclodextrin)): In neither case did the ED completely dissolve
optical density (OD) [5, 8]: 0.12
optical density (OD) ([5]; hydroxypropyl-β-cyclodextrin solution containing 80 mg of ED, 499 NM): 1.2
mean fat loss of the initial body fat content (obese subjects; 10-week period): about 5%
weight and body fat loss vs placebo (obese subjects; 14 subjects): lost significantly more weight and body fat
fat loss (obese subjects; four grams per day): significant fat loss
mean weight loss (obese subjects; four grams per day): 2.8±5.5 kilograms
mean weight loss normalized to body fat (obese subjects; four grams per day): 0.5±0.91 kilograms per week per 100 kilograms of body fat
subjective or objective side effects (obese subjects): no significant subjective or objective side effects
serum levels of α ET after administering ED ([3]; in vivo): high levels of α ET can be achieved in the serum
conversion in serum [3]: quickly converted almost exclusively to α ET

C[C@]12C=CC(=O)C=C1CC[C@@H]1[C@@H]2[C@@H](O)C[C@@]2(C)[C@H]1CC[C@]2(O)C(=O)CO [prednisolone, reference compound]
suppression of local irritation ([6]; minimal doses of 10 mg, with β-ET): sufficient to suppress any local irritation
